{"source": "patent US20150224164A1", "about": "“TREATMENT OF AUTISM SPECTRUM DISORDERS USING GLYCYL-L-2-METHYLPROLYL-L-GLUMATIC ACID” (Neuren Pharmaceuticals Limited, priority 2013, published 2015)", "key": {"MeCP2-/y mice [1]": {"tested_on": "MeCP2-/y mice", "assay": "Heart rate measurements (Example 10)", "format": "in vivo, mouse", "details": "8 weeks old, treated from P15", "experimental": "Real time cardiac pulse rate is measured using a tail clip sensor (Mouse OX Oximeter—Oakmont, Pa.). Mice are not anesthetized but physically restrained in a fitted open plastic tube. Prior to the recording session the tube is placed overnight in the cages housing the experimental animals to allow habituation. Body temperature is maintained at ˜82-84° F. throughout the recording time. We record 3 trials of 15 minutes for each mouse, mice are 8 weeks old and treated with vehicle or G-2-MePE from P15."}, "MeCP2-/y mice [2]": {"tested_on": "MeCP2-/y mice", "assay": "Life span (Example 10)", "format": "in vivo, mouse", "details": "20 mg/kg i.p. daily from P15; vs MeCP2 KO littermates", "experimental": "For the survival measurements, the nocturnal activity analysis and the immunoblot analysis, G-2-MePE (synthesised Albany Molecular Research Inc. (Albany, N.Y.) and supplied by Neuren Pharmaceuticals Limited) is administered daily via intra-peritoneal injections (20 mg/kg, vehicle=saline, 0.01% BSA). The treatment starts at P15 and is maintained throughout the course of the experiments. For intracellular physiology experiments, the mice are injected daily with G-2-MePE (20 mg/kg body weight, vehicle=saline, 0.01% BSA) for 2 weeks, from P15 to P28-P32 when they are used for acute slice preparation. For optical imaging experiments, mice are injected with G-2-MePE (20 mg/kg body weight, vehicle=saline, 0.01% BSA) daily from the day of the lid suture to the day of imaging."}, "[3]": {"tested_on": "hippocampal slices of heterozygous Shank3-deficient mice", "assay": "Hippocampal slice electrophysiology, Shank3-deficient mice (Example 13)", "format": "in vivo, mouse", "details": "15 or 60 mg/kg oral b.i.d. 14 days", "experimental": "1 to 3 month old wild type and heterozygous Shank3-deficient mice are divided into 4 treatment groups: placebo treated wild-type, placebo treated Shank3-deficient group and two Shank3-deficient G-2-MePE treated groups. The animals are given placebo (water) or G-2-MePE formulated in water administered orally, b.i.d for 14 days. G-2-MePE is administered at two doses: 15 or 60 mg/kg.\nPost-mortem, acute hippocampal slices (350 μm) are prepared from mice using a tissue chopper. Slices are maintained and experiments are conducted at 32° C. Slices are perfused with Ringer's solution containing (in mM): NaCl, 125.0; KCl, 2.5; MgSO4, 1.3; NaH2PO4, 1.0; NaHCO3, 26.2; CaCl2, 2.5; glucose, 11.0. […] Slices are maintained for 1 hr prior to establishment of a baseline of field excitatory postsynaptic potentials (fEPSPs) recorded from stratum radiatum in area CA1, evoked by stimulation of the Schaffer collateral-commissural afferents (100 μs pulses every 30 s) with bipolar tungsten electrodes placed into area CA3. […] The EPSP initial slope (mV/ms) is determined from the average waveform of four consecutive responses. […] AMPA receptor-mediated and NMDA receptor-mediated I/O relationships are measured in the presence of ionotropic glutamate receptor antagonists: […] APV (50 μM) and 6-cyano-7-nitroquinoxaline-2,3-dione CNQX (100 μM). […]"}, "fmr1 knockout mice": {"tested_on": "fmr1 knockout mice", "assay": "Species typical behaviors: marble burying and nest building", "format": "in vivo, mouse", "details": "100 mg/kg i.p. 28 days"}, "[4]": {"tested_on": "fmr1 KO hippocampal neurons", "assay": "Dendritic spine density in hippocampal primary cell cultures (microfluidic chamber, GFP)", "format": "cell-based, mouse", "details": "0.5 nM, n=3 independent experiments", "experimental": "Hippocampal cell cultures were prepared from wild-type and fmr1 KO foetal mice (14-16 d of gestation). After 3d in vitro, green fluorescent protein (GFP) was used to monitor dendritic spine density during time-course of culture (Ethell and Yamaguchi, 1999; Ethell et al., 2001, Henkemeyer et al., 2003). Dendritic spines are usually formed between 7 and 14 days in vitro (DIV). By 14 DIV most dendritic protrusions are spines. We evaluated the effect of G-2-MePE, a positive control (the mGluR5 antagonist 2-methyl-6-(phenylethynyl)-pyridine or MPEP) and vehicle controls on dendritic spine density in fmr1 KO and WT hippocampal primary cell cultures. Fmr1 KO and wild-type cultures were treated at 17 DIV.\nWe used the compartmentalized culture system, a microfluidic chamber (see FIG. 31A) which opens the possibility for fast drug testing with the capacity to detect in vitro drug effects such as spine morphology, neurite outgrowth and synapse formation. The treated and untreated neurons in the compartmentalized chambers can be also being use for western blot analysis. The compartmentalised culture is a new approach to evaluate the effect of drugs on anterograde and retrograde transport of messengers and proteins relevant to FXS. Other new possibility that offers this approach its access into exclusive axon compartment, in this area immunodetection and treatments are also possible. […]"}}, "note": "Where a SMILES comes first, the peptide text is derived from it."}
{"compound": "C[C@@]1(C(=O)N[C@@H](CCC(=O)O)C(=O)O)CCCN1C(=O)CN", "note": "[Example G-2-MePE, Glycyl-L-2-methylprolyl-L-glutamic acid] (HELM PEPTIDE1{G.[C[C@@]1(C(=O)[*:2])CCCN1[*:1]].E}$$$$V2.0)", "values": [{"measurement": "occurrence of irregular, lower heart rate", "setting": "MeCP2-/y mice [1]", "result": "significantly reduced"}, {"measurement": "increase in life expectancy (0.5 probability survival rate)", "setting": "MeCP2-/y mice [2]", "result": "~50", "unit": "%"}, {"measurement": "AMPA receptor-mediated field potentials, slope of I/O function", "setting": "[3]", "result": "normalizes"}, {"measurement": "hippocampal LTP and its maintenance", "setting": "[3]", "result": "increased hippocampal long-term potentiation"}, {"measurement": "marble burying behavior", "setting": "fmr1 knockout mice; fmr1 KO", "result": "normalized marble burying behavior"}, {"measurement": "nest building behavior", "setting": "fmr1 knockout mice; fmr1 KO", "result": "increased both marble burying and nest building behaviors"}, {"measurement": "marble burying", "setting": "fmr1 knockout mice; wild-type mice", "result": "no significant effect"}, {"measurement": "dendritic spine density (mean±SD)", "setting": "[4]", "result": "0.33±0.07", "unit": "spines per micrometer"}]}
